# Laboratory results from US20100204117A1, “CGRP AS A THERAPEUTIC AGENT” (priority 2008, published 2010).
# No end group written: not given here.
# What was measured:
# [1] = tested on: HIV-1IIIB; assay: HIV-1 antiviral assay in CEM-SS cells (MTS readout); format: cell-based
# [2] = tested on: HCMV strain AD169; assay: HCMV plaque formation assay in MRC-5 cells
# [3] = tested on: hepatitis B virus (HBV) ayw strain; assay: HBV assay in HepG2-2.2.15 cells (secreted HBV DNA, TaqMan PCR); format: cell-based; settings: 10 micrograms per ml, six days
# [4] = tested on: spleen cells; assay: Th1/Th2 cytokine profiling assay (Ovalbumin-restimulated spleen cells, CBA kit); format: cell-based, Balb/c mice; settings: 10 micrograms per ml; Ovalbumin restimulation; 72 hours
# Protocol: The Balb/c mice (originated in 1923, it is a popular strain and is used in many different research disciplines. […] On day 50, spleens of the mice were harvested (3 weeks after last boost with Ovalbumin). […] Thereafter, additional Ovalbumin was added to the cells at 10 micrograms/ml for in vitro restimulation of the cells. 72 hours later, cell supernatants were harvested and assayed using the Becton Dickinson Mouse Th1/Th2 Cytokine CBA Kit. This kit can be used to measure Interleukin-2 (IL-2), Interleukin-4 (IL-4), Interleukin-5 (IL-5), Interferon-γ (IFN-γ), and Tumor Necrosis Factor-α (TNF-α) protein levels in a single sample. The kit performance has been optimized for analysis of physiologically relevant concentrations ([…] levels) of specific cytokine proteins in tissue culture supernatants and serum samples.
# [5] = tested on: Primary Human endothelial cells (HUVEC); assay: Endothelial cell migration assay; format: cell-based; settings: 10 micrograms per ml, 22 hours
# [6] = tested on: HUVEC; assay: Endothelial tube formation assay; format: cell-based, human; settings: 10 micrograms per ml, 20 hours
compound,measurement,setting,value
Cc1cn([C@H]2C[C@H](N=[N+]=[N-])[C@@H](CO)O2)c(=O)[nH]c1=O [AZT],antiviral activity of positive control compounds (HIV-1),[1],expected levels of antiviral activity
"Nc1nc(O)c2ncn(COC(CO)CO)c2n1 [Ganciclovir, reference compound]",antiviral activity of positive control compound (HCMV),[2]; positive control,expected levels of antiviral activity
CC(C)(C)NC(=O)[C@@H]1CN(Cc2cccnc2)CCN1C[C@@H](O)C[C@@H](Cc1ccccc1)C(=O)N[C@H]1c2ccccc2C[C@H]1O [indinavir],antiviral activity of positive control compounds (HIV-1),[1],expected levels of antiviral activity
Ala-Cys-Asn-Thr-Ala-Thr-Cys-Val-Thr-His-Arg-Leu-Ala-Gly-Leu-Leu-Ser-Arg-Ser-Gly-Gly-Met-Val-Lys-Ser-Asn-Phe-Val-Pro-Thr-Asn-Val-Gly-Ser-Lys-Ala-Phe-NH2 (ACNTATCVTHRLAGLLSRSGGMVKSNFVPTNVGSKAF-NH2; ends and bridges not checked) [peptide 1],inhibition of HBV replication as compared to the virus control infection,[3],19.3%
same,IFNγ spleen cells; TH1 response (% of control),[4],31.9 % of control
same,IL-2 spleen cells (% of control),[4],104.8 % of control
same,IL-4 spleen cells; TH2 response (% of control),[4],90.3 % of control
same,IL-5 spleen cells; TH2 response (% of control),[4],40.1 % of control
same,TNF-a spleen cells; TH1 response (% of control),[4],84.0 % of control
same,inhibition of the migration of human endothelial cells,[5],did not inhibit
same,inhibition of the tube formation of human endothelial cells,[6],12%
same,inhibition of HCMV plaque formation as compared to the virus control experiment,"[2]; 10 micrograms per ml, 7-10 days",did not show any inhibition
